Experimental data: patent publication US20110152225A1, “PPAR-Gamma Agonists for the Induction of Cationic Antimicrobial Peptide Expression as Immunoprotective Stimulants” (priority 2007, published 2011)

What was measured:
HD-5 = HD-5 defensin gene expression in intestinal epithelial cells (Caco-2), quantitative PCR; format: cell-based, human; conditions: for activation of HD-5, as determined by quantitative PCR analysis: Caco-2 cells
Experimental: (§1) Cultured intestinal epithelial cell lines, namely Caco-2 (of human origin) and ICcl2 (of mice origin), were treated with the GSK-3 inhibitor LiCl ([…]) or the phosphatase inhibitor calyculin (50 nM) followed or not by stimulation with the PPAR-gamma agonist such as rosiglitazone (1 microM).
(§2) The expression of defensin and known target genes of both Wnt and PPAR-gamma signaling pathways were investigated by quantitative real-time PCR. The activation of GSK3, beta-catenin, NF-kappaB, ERK1/2, SAPK/JNK and p38 was measured by specific immunoblotting.

PPAR-gamma = PPAR-gamma mRNA expression in colon of healthy mice; format: in vivo; conditions: healthy mice (n=5); enema during 10 days; 5-ASA 30 mM, R34, E1 and E2 1 mM
hBD1 = hBD1 defensin mRNA expression in colonic epithelial Caco-2 cells; format: cell-based, human; conditions: stimulated for 24 h
Text: 5-ASA was purchased at Sigma-Aldrich (St Quentin Fallavier, France). Rosiglitazone was synthesized in the laboratory according to standard procedures. The racemic compound 34 and the two enantiomers of the compound, 34-E1 and 34-E2 were provided by Giuliani SpA (Milano, Italy). Compound were re-suspended in DMEM medium (Gibco) and adjusted at pH=7 if necessary with 10N NaOH.
The colon carcinoma cell line Caco-2 (ATCC HTB-39) was routinely grown in DMEM supplemented respectively with 10% or 20% heat-FCS, and antibiotics. Cells were grown in monolayers, incubated at 37° C. in 5% CO2 and 95% relative humidity.
Cell were stimulated by 5-ASA, R34, 34-E1 and 34-E2 for 24 h. Total RNA was isolated from cells using Rneasy kit (Macherey Nagel, Hoerdt, France) according to the manufacturer's instructions. RNA quantification was performed using spectrophotometry. After treatment at 37° C. for 30 min with 20-50 units of RNase-free DNase I (Roche Diagnostics Corporation, Indianapolis, Ind., USA), oligo-dT primers (Roche Diagnostics Corporation, Indianapolis, USA) were used to synthesize single-stranded cDNA. mRNAs were quantified using SYBR green Master Mix (Applera, Courtaboeuf, France) with human specific oligonucleotides for hBD1(S:5′-[…]-3′; AS:5′-TTgTCTGAGATGGCCTCAggTggTAAC-3′) in a GeneAmp Abiprism 7000 (Applera, Courtaboeuf, France). In each assay, calibrated and no-template controls were included. Each sample was run in triplicate. SYBR green dye intensity was analyzed using the Abiprism 7000 SDS software (Applera, Courtaboeuf, France). All results were normalized to the unaffected housekeeping gene of human β-actin (S:5′-TCACCCACACTgTgCCCATCTACg-3′; AS:5′-CAgCggAACCgCTCATTgCCAATg-3′).

LL37 = LL37 (defensin) mRNA expression in colon of healthy mice; format: in vivo; conditions: for induction of defensin expression / potency in defensin expression induction compared to 5-ASA: conclusion on the in vitro and in vivo results; for colon defensin (LL37) mRNA expression: healthy mice (n=5), enema during 10 days, 5-ASA 30 mM, R34, E1 and E2 1 mM
Experimental: […] Post-mortem, total RNA was isolated from whole mice colonic tissues using Rneasy kit (Macherey Nagel, Hoerdt, France) according to the manufacturer's instructions. RNA quantification was performed using spectrophotometry. After treatment at 37° C. for 30 min with 20-50 units of RNase-free DNase I (Roche Diagnostics Corporation, Indianapolis, Ind., USA), oligo-dT primers (Roche Diagnostics Corporation, Indianapolis, USA) were used to synthesize single-stranded cDNA. mRNAs were quantified using SYBR green Master Mix (Applera, Courtaboeuf, France) with mouse specific oligonucleotides for LL37(S:5′-gCTgATTCTTTTgACATCAgCTgTAA-3′ AS:5′-gCCAgCCgggAAATTTTCT-3′) in a GeneAmp Abiprism 7000 (Applera, Courtaboeuf, France). In each assay, calibrated and no-template controls were included. Each sample was run in triplicate. SYBR green dye intensity was analyzed using the Abiprism 7000 SDS software (Applera, Courtaboeuf, France). All results were normalized to the unaffected housekeeping gene β-actin (S:5′-gggTCAgAAggATTCCTATg-3′; AS:5′ ggTCTCAAACATgATCTggg-3′).

[1] = system: colonies of Lactobacillus, Enterococcus or Bacteroides; conditions: U.S. Pat. No. 6,326,364; cited from earlier work
[2] = system: Clostridium bacterial cultures; conditions: agar plates in aerobic and anaerobic conditions; U.S. Pat. No. 6,326,364; cited from earlier work
beta-catenin = assay: Stability of beta-catenin, immunoblotting; format: cell-based; conditions: stimulation by both calyculin and rosiglitazone
Experimental: as §1, §2

cyclin-D1 = assay: Expression of Wnt/Tcf/beta-catenin target gene cyclin-D1, quantitative real-time PCR; format: cell-based; conditions: stimulation by both calyculin and rosiglitazone
Experimental: as §1, §2

CCOC(Cc1ccc(N)cc1)C(=O)O (racemic) [Compound 39, (±)-2-ethoxy-3-(4′-aminophenyl)propionic acid]
activation of HD-5, as determined by quantitative PCR analysis (HD-5): activates HD-5

CCOC(Cc1cccc(N)c1)C(=O)O (racemic) [Compound 40, (±)-2-ethoxy-3-(3′-aminophenyl)propionic acid]
activation of HD-5, as determined by quantitative PCR analysis (HD-5): activates HD-5

COC(Cc1ccc(N)cc1)C(=O)O (racemic) [Compound R34, (±)-2-methoxy-3-(4′-aminophenyl)propionic acid]
colon PPARy mRNA expression (PPAR-gamma): induced
expression of hBD1 (human defensin-1) (hBD1): induce the expression of hBD1
induction of defensin expression (LL37): induction of defensin expression
colon defensin (LL37) mRNA expression (LL37): induced

Nc1ccc(O)c(C(=O)O)c1 [Compound 5-ASA, 5-aminosalycilate, reference compound]
colon PPARy mRNA expression (PPAR-gamma): induced
antimicrobial effect against colonies of Lactobacillus, Enterococcus or Bacteroides [1]: No effect
activation of HD-5, as determined by quantitative PCR analysis (HD-5): activates HD-5
expression of hBD1 (human defensin-1) (hBD1): induce the expression of hBD1
induction of defensin expression (LL37): induction of defensin expression
colon defensin (LL37) mRNA expression (LL37): induced
antimicrobial effect against Clostridium bacterial cultures [2]: inhibitory effects

COc1ccc(N)cc1C(=O)NO [Compound 14, 5-amino-N-hydroxy-2-methoxybenzamide]
activation of HD-5, as determined by quantitative PCR analysis (HD-5): activates HD-5

CO[C@@H](Cc1cccc(N)c1)C(=O)O [Compound 34-E1, (+) 2-S-methoxy-3-(3-aminophenyl)propionic acid]
colon PPARy mRNA expression (PPAR-gamma): induced
induction of defensin expression (LL37): induction of defensin expression
potency in defensin expression induction compared to 5-ASA (LL37): higher potency
colon defensin (LL37) mRNA expression (LL37): induced

CO[C@H](Cc1cccc(N)c1)C(=O)O [Compound 34-E2, (−) 2-R-methoxy-3-(3-aminophenyl)propionic acid]
colon PPARy mRNA expression (PPAR-gamma): induced
expression of hBD1 (human defensin-1) (hBD1): induce the expression of hBD1
induction of defensin expression (LL37): induction of defensin expression
potency in defensin expression induction compared to 5-ASA (LL37): higher potency
colon defensin (LL37) mRNA expression (LL37): induced
gut defensin expression induction (LL37; summary statement referring to FIGS. 8 & 9): particularly effective

[Cl-].[Li+] [LiCl, reference compound]
rosiglitazone-induced defensin gene expression (HD-5; co-stimulation with LiCl): blocked

calyculin
antimicrobial (defensin) gene expression induced by PPAR-gamma activators following co-stimulation (HD-5; co-stimulation by calyculin with rosiglitazone and other PPAR-gamma activators): synergized
stability of the beta-catenin (beta-catenin): markedly decreased
expression of Wnt/Tcf/beta-catenin target gene cyclin-D1 (cyclin-D1): markedly decreased
